Measurements published in US12617795B2, “Substituted 6,7-dihydro-5H-pyrrolo[3,4-d]pyrimidines, 5,7-dihydrofuro[3,4-d]pyrimidines, and pyrido[2,3-d]pyrimidines as KCC2 modulators” (Astrazeneca AB, priority 2020, dated 2026).

These molecules were tested against T1, KCC2 (Homo sapiens, UniProt Q9H2X9) (assay: KCC2 thallium transport FLIPR-based assay (Tl+ influx in HEK293 cells expressing KCC2)). Details: 90 min compound incubation at RT, thallium flux at 120 s used to determine EC50.
T1 construct: expressed in transfected cells; host or cells: HEK293 cells electroporated (Maxcyte STX) with the pcDNA3.1 KCC2 plasmid
T1 sequence (Q9H2X9 1-1139): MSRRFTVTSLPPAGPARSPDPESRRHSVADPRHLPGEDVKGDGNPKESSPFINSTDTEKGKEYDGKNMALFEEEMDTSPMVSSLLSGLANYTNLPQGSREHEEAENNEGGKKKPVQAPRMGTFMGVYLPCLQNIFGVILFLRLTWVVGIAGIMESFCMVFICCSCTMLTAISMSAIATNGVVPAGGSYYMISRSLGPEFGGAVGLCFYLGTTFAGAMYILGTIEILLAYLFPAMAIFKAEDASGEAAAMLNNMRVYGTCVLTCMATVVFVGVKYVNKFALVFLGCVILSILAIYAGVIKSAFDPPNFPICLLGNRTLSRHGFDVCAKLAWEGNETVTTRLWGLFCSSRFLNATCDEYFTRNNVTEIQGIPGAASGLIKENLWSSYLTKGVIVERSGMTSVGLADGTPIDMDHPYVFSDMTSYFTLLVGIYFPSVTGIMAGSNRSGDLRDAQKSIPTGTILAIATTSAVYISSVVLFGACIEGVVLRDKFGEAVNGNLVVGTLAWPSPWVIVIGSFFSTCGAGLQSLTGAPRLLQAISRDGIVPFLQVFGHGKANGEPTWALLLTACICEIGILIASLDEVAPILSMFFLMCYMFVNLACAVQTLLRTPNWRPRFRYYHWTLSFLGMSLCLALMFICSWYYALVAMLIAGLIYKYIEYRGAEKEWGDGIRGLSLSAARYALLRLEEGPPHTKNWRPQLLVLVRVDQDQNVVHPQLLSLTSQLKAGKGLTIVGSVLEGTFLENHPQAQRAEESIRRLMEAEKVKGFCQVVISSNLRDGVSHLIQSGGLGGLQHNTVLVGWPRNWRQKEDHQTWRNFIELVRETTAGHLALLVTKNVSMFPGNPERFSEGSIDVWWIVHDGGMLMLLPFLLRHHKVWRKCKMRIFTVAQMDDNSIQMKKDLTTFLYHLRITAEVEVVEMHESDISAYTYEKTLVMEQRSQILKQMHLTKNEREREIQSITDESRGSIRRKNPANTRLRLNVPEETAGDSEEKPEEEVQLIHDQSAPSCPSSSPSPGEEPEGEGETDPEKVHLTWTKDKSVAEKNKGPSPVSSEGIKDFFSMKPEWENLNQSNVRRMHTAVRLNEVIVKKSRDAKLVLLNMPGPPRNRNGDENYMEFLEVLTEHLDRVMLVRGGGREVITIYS
Type: cell-based
Procedure: A thallium transport FLIPR-based assay was used to measure the ability of compounds to activate KCC2. KCC2 activity is assessed by measuring KCC2-dependent Tl^+ influx in a KCC2-expressing cell. The assay protocol was based on those described by Delpire et al (Proc Natl Acad Sci USA. 2009 Mar. 31; 106(13): 5383-5388) and Zhang et al (Journal of Biomolecular Screening 15(2): 2010).
KCC2 was synthesised and codon optimised by GeneArt based on the Uniprot sequence Q9H2X9. The final sequence was subcloned into pcDNA3.1.
HEK293 cells were grown in 10 layer cell stacks at 37° C., 5% CO2, in DMEM, 10% fetal calf serum and 2 mM Glutamine. The cells were detached by removing the media and washing the cell stack with 100 ml of PBS. The PBS was removed and 100 ml of 1× TrypLE was added and the cell stack returned to 37° C. for 5 min. The detached cells were then counted in a Vi Cell counter and spun for 10 min at 1250 rpm in a Sorval Legend centrifuge. The cells were diluted down in Maxcyte electroporation buffer at 4× the final concentration and spun as before. The cell pellet was resuspended at 1×10^8/cells per ml and electroporated in a Maxcyte Cl 2.2 bag on a Maxcyte STX machine via the HEK293 programme with 200 ug/ml of plasmid DNA. The cells were then allowed to recover for 30 min before adding to 500 ml of PBS and then counted again on the Vi Cell. The cells were then frozen down in planer controlled rate freeze in 90% complete media, 10% DMSO.
All reagents were dispensed using a Mulitdrop Combi unless stated otherwise. All FluXOR Invitrogen propriety buffer compositions are mentioned in tables below.
HEK293 KCC2 cells were harvested at a density of 3.33×10^5 cells/mL in complete media (DMEM, Sigma, D6546, 10% fetal calf serum and 1% Glutamax) and 30 μL per well seeded into 384-well PDL coated black-clear plates (Corning, 354663). Leave cells at RT for 20 mins to settle before incubating for 48 h at 37° C., 5% CO2. Following incubation, perform three wash steps in HBSS (Sigma, H6648) using a Biotek cell washer with the final aspiration leaving 20 μL HBSS residual volume in each well. A further 20 μL per well of thallium loading dye is then added (1 h, RT, protect from light). 5 μL of test compounds (100 μM top concentration, 1:2 dilutions, 12 point curve) were added using the FLIPR TETRA and incubated at RT for 90 min in the dark. Following compound incubation, the thallium flux response is read on FLIPR TETRA (ex. 515-575 nm) which is initiated by FLIRR TETRA dispensing 5 μL stimulus buffer into each well. Recordings are measured every 1 second for 120 seconds. Thallium flux at 120 s used to determine EC50.
Compound buffer: Assay buffer with 1 μL of bumetanide per 10 ml.

| Structure (SMILES) | EC50 |
| --- | --- |
| CCCN(CCC)c1nc(Nc2ccc(C3CCCCC3)cc2)c2c(n1)C(=O)N(C(C)C)C2 [Example 29, 4-[(4-cyclohexylphenyl)amino]-2-(dipropylamino)-6-(propan-2-yl)-5,6-dihydro-7H-pyrrolo[3,4-d]pyrimidin-7-one] | 3.89 µM |
| CC(C)N1Cc2c(Nc3ccc(C4CCCCC4)cc3)nc(N(C)CC3CC3)nc2C1=O [Example 30, 4-[(4-cyclohexylphenyl)amino]-2-[(cyclopropylmethyl)(methyl)amino]-6-(propan-2-yl)-5,6-dihydro-7H-pyrrolo[3,4-d]pyrimidin-7-one] | 4.05 µM |
| COC(=O)c1cnc2nc(N3CCO[C@H](C)C3)nc(Nc3ccc(C4CCCCC4)cc3)c2c1 [Example 102, methyl (R)-4-((4-cyclohexylphenyl)amino)-2-(2-methylmorpholino) pyrido[2,3-d]pyrimidine-6-carboxylate] | 0.7 µM |
| CC(C)N1Cc2c(Nc3ccc(C4CCCCC4)cc3)nc(N(C)CC3CCCO3)nc2C1=O (stereo not drawn) [Example 35] | 6.3 µM |
| CC(C)N1Cc2c(Nc3ccc(C4CCCCC4)cc3)nc(N3CCOC4(CCOCC4)C3)nc2C1=O [Example 25, 4-[(4-cyclohexylphenyl)amino]-2-(1,9-dioxa-4-azaspiro[5.5]undecan-4-yl)-6-(propan-2-yl)-5,6-dihydro-7H-pyrrolo[3,4-d]pyrimidin-7-one] | 3.41 µM |
| CCC1CN(c2nc(Nc3ccc(C4CCCCC4)cc3)c3c(n2)C(=O)N(C(C)C)C3)CCO1 (stereo not drawn) [Example 21, 4-[(4-cyclohexylphenyl)amino]-2-(2-ethylmorpholin-4-yl)-6-(propan-2-yl)-5,6-dihydro-7H-pyrrolo[3,4-d]pyrimidin-7-one] | 2.64 µM |
| C1=C(c2nc(Nc3ccc(C4CCCCC4)cc3)c3cccnc3n2)CCOC1 [Example 98, N-(4-cyclohexylphenyl)-2-(3,6-dihydro-2H-pyran-4-yl)pyrido[2,3-d]pyrimidin-4-amine] | 5.53 µM |
| CC(=O)NCCC1CN(c2nc(Nc3ccc(C4CCCCC4)cc3)c3c(n2)C(=O)N(C(C)C)C3)CCO1 (stereo not drawn) [Example 39, N-[2-(4-{4-[(4-cyclohexylphenyl)amino]-7-oxo-6-(propan-2-yl)-6,7-dihydro-5H-pyrrolo[3,4-d]pyrimidin-2-yl}morpholin-2-yl)ethyl]acetamide] | 9.9 µM |
| C[C@@H]1CN(c2nc(Nc3ccc(C4CCC4)cc3)c3c(n2)C(=O)N(CCCN(C)C)C3)CCO1 [Example 74, 4-[(4-cyclobulylphenyl)amino]-6-[3-(dimethylamino)propyl]-2-[(2R)-2-methylmorpholin-4-yl]-5,6-dihydro-7H-pyrrolo[3,4-d]pyrimidin-7-one] | 3.7 µM |
| COc1cnc2nc(N3CCO[C@H](C)C3)nc(Nc3ccc(C4CCCCC4)cc3)c2c1 [Example 106, (R)—N-(4-cyclohexylphenyl)-6-methoxy-2-(2-methylmorpholino) pyrido[2,3-d]pyrimidin-4-amine] | 1.85 µM |
| CC(C)N1Cc2c(Nc3ccc(OCc4ccccc4)cc3)nc(N3CCO[C@H](C)C3)nc2C1=O [Example 57, 4-[(4-(benzyloxy)phenyl]amino}-2-[(2R)-2-methylmorpholin-4-yl]-6-(propan-2-yl)-5,6-dihydro-7H-pyrrolo[3,4-d]pyrimidin-7-one] | 3.6 µM |
| CC(C)N1Cc2c(Nc3ccc(C4CCCCC4)cc3)nc(N(C)CCc3ccccn3)nc2C1=O [Example 37, 4-[(4-cyclohexylphenyl)amino]-2-{methyl[2-(pyridin-2-yl)ethyl]amino}-6-(propan-2-yl)-5,6-dihydro-7H-pyrrolo[3,4-d]pyrimidin-7-one] | 6.3 µM |
| CC(C)c1ccc(Nc2nc(N3CCO[C@H](C)C3)nc3c2CN(C(C)C)C3=O)cc1 [Example 7, 2-[(2R)-2-methylmorpholin-4-yl]-6-(propan-2-yl)-4-{[4-(propan-2-yl)phenyl]amino}-5,6-dihydro-7H-pyrrolo[3,4-d]pyrimidin-7-one] | 4.5 µM |
| CC(C)N1Cc2c(Nc3ccc(C4CCCCC4)cc3)nc(N3CCOC(C4CC4)C3)nc2C1=O (single isomer, unassigned) [Example 14, 4-[(4-cyclohexylphenyl)amino]-2-(2-cyclopropylmorpholin-4-yl)-6-(propan-2-yl)-5,6-dihydro-7H-pyrrolo[3,4-d]pyrimidin-7-one] | 0.707 µM |
| Cc1cc(Nc2nc(N3CCOCC3)nc3c2CN(C(C)C)C3=O)ccc1-c1ccccc1 [Example 88, 4-[(2-methyl[1,1′-biphenyl]-4-yl)amino]-2-(morpholin-4-yl)-6-(propan-2-yl)-5,6-dihydro-7H-pyrrolo[3,4-d]pyrimidin-7-one] | 3.52 µM |
| CCN(CC)c1nc(Nc2ccc(C3CCCCC3)cc2)c2c(n1)C(=O)N(C(C)C)C2 [Example 34, 4-[(4-cyclohexylphenyl)amino]-2-(diethylamino)-6-(propan-2-yl)-5,6-dihydro-7H-pyrrolo[3,4-d]pyrimidin-7-one] | 5.21 µM |
| CC(C)N1Cc2nc(N3CCO[C@H](C)C3)nc(Nc3ccc(C4CCCCC4)cc3)c2C1 [Example 110, (R)—N-(4-cyclohexylphenyl)-6-isopropyl-2-(2-methylmorpholino)-6,7-dihydro-5H-pyrrolo[3,4-d]pyrimidin-4-amine] | 7.31 µM |
| COc1cc(-c2nc(Nc3ccc(C4CCCCC4)cc3)c3c(n2)C(=O)N(C(C)C)C3)ccn1 [Example 43, 4-[(4-cyclohexylphenyl)amino]-2-(2-methoxypyridin-4-yl)-6-(propan-2-yl)-5,6-dihydro-7H-pyrrolo[3,4-d]pyrimidin-7-one] | 0.738 µM |
| C#CCCC1(CCOc2ccc(-c3ccc(Nc4nc(N5CCOC(C6CC6)C5)nc5c4CN(C(C)C)C5=O)cc3)cc2)N=N1 (stereo not drawn) [Example 54, 4-[(4′-{2-[3-(but-3-yn-1-yl)-3H-diaziren-3-yl]ethoxy}[1,1′-biphenyl]-4-yl)amino]-2-(2-cyclopropyl-morpholin-4-yl)-6-(propan-2-yl)-5,6-dihydro-7H-pyrrolo[3,4-d]pyrimidin-7-one] | 0.253 µM |
| CC(C)N1Cc2c(Nc3ccc(C4CCCCC4)cc3)nc(N3CCSC3)nc2C1=O [Example 19, 4-[(4-cyclohexylphenyl)amino]-6-(propan-2-yl)-2-(1,3-thiazolidin-3-yl)-5,6-dihydro-7H-pyrrolo[3,4-d]pyrimidin-7-one] | 2.04 µM |
| CCCCCCCOc1ccc(-c2ccc(Nc3nc(N4CCOC(C5CC5)C4)nc4c3CN(C(C)C)C4=O)cc2)cc1 (stereo not drawn) [Example 53, 2-(2-cyclopropylmorpholin-4-yl)-4-{[4′-(heptyloxy)[1,1′-biphenyl]-4-yl]amino}-6-(propan-2-yl)-5,6-dihydro-7H-pyrrolo[3,4-d]pyrimidin-7-one] | 0.215 µM |
